The results in this text go back to PubChem BioAssay (NCI).

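Method: 48-hour compound exposure of cells in 96-well plates, five concentrations, linear interpolation of endpoints. GI50 = concentration required for 50% inhibition of growth. TGI: concentration producing complete growth inhibition.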

Common to all, as to assay: inhibition of tumour cell growth, NCI panel, 48 h
Assay [1] concerns NCI-H23 lung.
Assay [2] has as its system HCC-2998 colon.
For assay [3], the system named is OVCAR-3 ovarian.
Assay [4] relates to 786-0 renal.
The test system of assay [5] is HT29 colon.
Assay [6] has as its system MOLT-4 leukemia.
Assay [7] has as its system SF-295 CNS.
Assay [8] deals with U251 CNS.
Assay [9] concerns NCI-H522 lung.
In assay [10] the test system is SNB-75 CNS.

In the case of `Cc1cnc(C(=O)NNc2nc3sc4c(c3c(=O)n2C)C(C)CCC4)cn1` (centres undefined), the GI50 in assay [1] is 0.719 µM; in assay [2], 0.529 µM; in assay [3] it was 0.259 µM; in [4] it was 0.511 µM; in assay [5], 0.788 µM; in assay [6], 0.346 µM. For the same compound, the GI50 in assay [7] is 0.384 µM; in assay [8], 0.228 µM; in [9], 0.328 µM; in assay [10], 0.56 µM. In addition, the TGI amounted to 10.3 µM in [1]; 6.22 µM in assay [2]; 1.8 µM in assay [3]; 5.52 µM in assay [4]; 6.19 µM in assay [5]; 3.91 µM in assay [7]. In addition, the TGI in assay [8] came to 2.32 µM; in assay [9], 4.62 µM; in [10] it was 5.78 µM.
`Cc1cc(N2CCOCC2)cc2[nH]c(-c3c(NC[C@@H](O)c4cccc(Cl)c4)cc[nH]c3=O)nc12`: the GI50 in assay [1] is 1.29 µM; in assay [2] it was 1.57 µM; in assay [3] it was 5.58 µM; in [4] it was 1.21 µM; in assay [5], 0.0672 µM; in [6], 3.14 µM. Moreover, the GI50 in assay [7] is 2.72 µM; in assay [8], 1.65 µM; in assay [9], 1.78 µM; in assay [10] it was 1.15 µM. For the same compound, the TGI in assay [1] stood at 11.3 µM; in assay [2], 6.15 µM; in [3], 27.7 µM; in [4], 4.02 µM; in [5] it was 1.81 µM; in assay [6], 27.7 µM. The TGI in [7] is 18.9 µM; in assay [8], 4.38 µM; in [9], 6.18 µM; in assay [10], 2.47 µM.
For the compound `O=C1C(=Cc2c(O)cc(O)cc2O)C(=O)c2ccccc21`, the TGI in assay [1] is more than 53.9 µM; in assay [2] it was more than 56.4 µM; in assay [3] it was more than 55 µM; in [4] it was more than 56.4 µM; in [5], more than 56.4 µM; in [6], more than 81.6 µM. In addition, the TGI in assay [7] was more than 57 µM; in assay [8] it was more than 57.2 µM; in assay [9], more than 60.3 µM; in [10], more than 59.7 µM.
Turning to `CCN1CCC(O)(c2ccc(Cl)cc2)C(C(=O)c2ccc(Cl)cc2)C1` (centres undefined), the TGI in assay [1], in [2], in assay [3], in assay [4], in assay [5] and in assay [6] was more than 100 µM throughout. Moreover, the TGI in [7] was more than 100 µM; in [8] it was more than 100 µM; in assay [9], 41.9 µM; in assay [10], more than 100 µM.
`O=C(c1ccccc1)c1cn(/N=C\c2ccccc2)c(=O)nc1-c1ccccc1`: the TGI in assay [1], in assay [2], in assay [3], in assay [4], in assay [5] and in assay [6] was more than 100 µM throughout. For the same compound, the TGI in [7], in assay [8], in assay [9] and in assay [10] was more than 100 µM each time.
With `C[N+]1=C(/C=C\C=C\c2ccccc2)C(C)(C)c2ccccc21`, the GI50 in assay [1] is 2.83 µM; in assay [2] it was 3.28 µM; in assay [3] it was 1.08 µM; in assay [4] it was 3.19 µM; in assay [5] it was 2.6 µM; in [6], 2.13 µM. Also, the GI50 in assay [7] is 10.8 µM; in [8], 1.59 µM; in assay [9] it was 0.863 µM; in [10], 3.73 µM. Besides, the TGI in [1] came out at 11.5 µM; in [2], 14.9 µM; in assay [3], 2.81 µM; in assay [4] it was 10.7 µM; in [5] it was 9.09 µM; in assay [6], 6.44 µM. Further, the TGI in [7] amounted to 24.6 µM; in [8] it was 4.18 µM; in [9] it was 2.9 µM; in [10], 16.2 µM.
For `NC(N)=NS(=O)(=O)c1ccc(Nc2c3ccccc3nc3c(C(=O)Nc4ccc(S(N)(=O)=O)cc4)cccc23)cc1`, the TGI in assay [1], in assay [2], in assay [3], in assay [4], in assay [5] and in assay [6] was more than 100 µM each time. Moreover, the TGI in assay [7] was more than 100 µM; in assay [8], more than 100 µM; in [9], 68.7 µM; in assay [10] it was more than 100 µM.
Regarding `COc1cc2c(cc1OC)/C(=C\c1ccccc1N)C(=O)OC2`, the TGI was 42.7 µM in assay [1]; 47.2 µM in assay [2]; 35.7 µM in assay [3]; 9.96 µM in assay [4]; 30.4 µM in assay [5]; 8.24 µM in assay [6]. In addition, the TGI in assay [7] was determined as 29.3 µM; in assay [8], 32.6 µM; in assay [9], 3.47 µM; in assay [10] it was 24.9 µM.
As for `CC(C)=CC1=C2C3=C(C(=O)C4(O)Oc5c(C)c6c7c(c5OC24C)[C@@H](C)CC[C@@H]7[C@@H](C)C[C@H]6C=C(C)C)C(C)CCC3C(C)C1` (some centres undefined), the GI50 in [1], in assay [2], in assay [3], in assay [4], in [5] and in assay [6] was more than 100 µM each time. In addition, the GI50 in assay [7], in [8], in assay [9] and in assay [10] was more than 100 µM in each case. The TGI in assay [1], in assay [2], in assay [3], in assay [4], in [5] and in assay [6] was more than 100 µM each time. The TGI in assay [7], in assay [8], in [9] and in assay [10] was more than 100 µM throughout.
